Measurements published in the NIST ThermoML archive (doi:10.1021/je050005h).

Key:
[1] = xn = mol fraction of the nth substance listed; conditions: 101 kPa, Liquid
[2] = 101 kPa, Liquid

O [water] + C1CCNC1
[1], x2 = 0
Conditions	kinematic viscosity [m2/s]	mass density [kg/m3]
293.15 K	9.9e-07	–
303.15 K	8.1e-07	–
313.15 K	6.66e-07	–
323.15 K	5.61e-07	988.02

C1CCNC1 [pyrrolidine]
[2]
Conditions	kinematic viscosity [m2/s]	mass density [kg/m3]
293.15 K	9.54e-07	859.87
303.15 K	8.27e-07	850.11
313.15 K	7.43e-07	840.24
323.15 K	6.41e-07	833.88

O [water] + C1CCNCC1
[1], x2 = 0
Conditions	kinematic viscosity [m2/s]	mass density [kg/m3]
293.15 K	9.9e-07	–
303.15 K	8.1e-07	–
313.15 K	6.66e-07	–
323.15 K	5.61e-07	988.02

C1CCNCC1 [piperidine] + O
[1]
Conditions	kinematic viscosity, 293.15 K [m2/s]	kinematic viscosity, 303.15 K [m2/s]	kinematic viscosity, 313.15 K [m2/s]	kinematic viscosity, 323.15 K [m2/s]	mass density, 293.15 K [kg/m3]	mass density, 303.15 K [kg/m3]	mass density, 313.15 K [kg/m3]	mass density, 323.15 K [kg/m3]
x1 = 0.0055	1.11e-06	8.82e-07	7.18e-07	5.98e-07	997.07	994.34	990.68	986.17
x1 = 0.011	1.21e-06	9.53e-07	7.72e-07	6.36e-07	995.89	992.89	989.03	984.42
x1 = 0.028	1.5e-06	1.2e-06	9.42e-07	8.12e-07	992.43	987.87	982.66	976.92
x1 = 0.0573	2.2e-06	1.74e-06	1.33e-06	1.07e-06	985.56	979.56	973.25	966.6
x1 = 0.0986	3.55e-06	2.55e-06	1.88e-06	1.47e-06	974.58	967.57	960.35	952.86
x1 = 0.1795	5.94e-06	4.01e-06	2.81e-06	2.14e-06	955.67	947.6	939.32	930.84
x1 = 0.2672	7.62e-06	5.06e-06	3.48e-06	2.62e-06	940.18	931.55	922.71	913.66
x1 = 0.3536	8.02e-06	5.42e-06	3.71e-06	2.68e-06	927.85	918.89	909.73	900.37
x1 = 0.4387	7.04e-06	4.97e-06	3.49e-06	2.53e-06	917.5	908	899	889
x1 = 0.5225	6.09e-06	4.37e-06	3.1e-06	2.31e-06	906.51	897.28	887.84	878.22
x1 = 0.6458	4.49e-06	3.22e-06	2.33e-06	1.83e-06	892.99	883.65	874.16	864.51
x1 = 0.8454	–	–	–	–	875.08	865.74	856.27	846.67
x1 = 0.8455	2.6e-06	2e-06	1.62e-06	1.31e-06	–	–	–	–
x1 = 1	1.79e-06	1.49e-06	1.25e-06	1.06e-06	863.81	854.5	845.08	835.56

C1CCNCC1 [piperidine]
[2]
Conditions	kinematic viscosity [m2/s]	mass density [kg/m3]
293.15 K	1.79e-06	863.81
303.15 K	1.49e-06	854.5
313.15 K	1.25e-06	845.08
323.15 K	1.06e-06	835.56

C1CCNC1 [pyrrolidine] + O
[1]
Conditions	kinematic viscosity, 293.15 K [m2/s]	kinematic viscosity, 303.15 K [m2/s]	kinematic viscosity, 313.15 K [m2/s]	kinematic viscosity, 323.15 K [m2/s]	mass density, 293.15 K [kg/m3]	mass density, 303.15 K [kg/m3]	mass density, 313.15 K [kg/m3]	mass density, 323.15 K [kg/m3]
x1 = 0.0057	–	–	–	–	997.13	994.41	990.83	986.46
x1 = 0.0101	–	–	–	–	996.33	993.49	989.78	985.31
x1 = 0.0221	1.44e-06	1.12e-06	8.8e-07	7.63e-07	994.47	991.12	986.92	982
x1 = 0.0678	2.47e-06	1.76e-06	1.34e-06	1.06e-06	989.46	983.41	976.91	970.03
x1 = 0.1158	3.52e-06	2.42e-06	1.77e-06	1.36e-06	980.95	973.19	965.26	957.15
x1 = 0.2076	4.53e-06	3.15e-06	2.27e-06	1.73e-06	962.31	953.57	944.65	935.51
x1 = 0.3039	4.78e-06	3.34e-06	2.46e-06	1.87e-06	943.39	934.33	925.06	915.6
x1 = 0.3958	4.36e-06	3.13e-06	2.31e-06	1.79e-06	928.64	919.34	909.83	900.11
x1 = 0.4834	3.64e-06	2.73e-06	2.08e-06	1.61e-06	917.04	907.58	897.92	888.05
x1 = 0.5671	2.99e-06	2.24e-06	1.76e-06	1.39e-06	906.1	896	886.2	877.7
x1 = 0.6858	2.13e-06	1.71e-06	1.37e-06	1.12e-06	893.17	883.53	873.7	863.68
x1 = 0.8675	1.31e-06	1.07e-06	9.13e-07	7.84e-07	872.39	862.69	852.81	846.3
x1 = 1	9.54e-07	8.27e-07	7.43e-07	6.41e-07	859.87	850.11	840.24	833.88
